In general, pIC50 refers to −log10 of the IC50, conventionally taken in molar units.

The values that follow come from ChEMBL document CHEMBL5223140, “Highly potent anti-inflammatory, analgesic and antioxidant activities of 3,5-disubstituted tetrahydro-2H-1,3,5-thiadiazine thiones” (Bioorg Med Chem Lett, 2023).

Holding throughout (assay type): functional
The species named for one assay is Homo sapiens. The assay is described as follows: Antiinflammatory activity against human blood incubated for 15 mins by thermostatic luminometric chemiluminescence based oxidative burst assay. Particulars: for pIC50: Homo sapiens, Blood, 0.25 h, read-out: IC50; call rule not given here.
The subject of assay [1] is Mus musculus. Nature of the assay: Analgesic activity against acetic acid induced mouse model assessed as number of writhes at 5 mg/kg, po administrated for 30 mins followed by acetic acid addition and measured after 20 mins by abdominal constriction test. Particulars: time 50 min.
For assay [2], the system named is Mus musculus. Nature of the assay: Analgesic activity against acetic acid induced mouse model assessed as reduction in writhing at 5 mg/kg, po administrated for 30 mins followed by acetic acid addition and measured after 20 mins by abdominal constriction test. Set-up: scale not given: the % may be the effect or the level left. The conditions noted are these: time 50 min.

Assay [3] can be described thus: Antioxidant activity assessed as DPPH radical scavenging activity incubated for 30 mins by spectrophotometric analysis.
Assay [4] concerns Mus musculus. The assay is described as follows: Analgesic activity against acetic acid induced mouse model assessed as number of writhes at 10 mg/kg, po administrated for 30 mins followed by acetic acid addition and measured after 20 mins by abdominal constriction test. The conditions noted are these: time 50 min.
Assay [5] concerns Mus musculus. The assay is described as follows: Analgesic activity against acetic acid induced mouse model assessed as reduction in writhing at 10 mg/kg, po administrated for 30 mins followed by acetic acid addition and measured after 20 mins by abdominal constriction test. The arrangement: scale not given: the % may be the effect or the level left. The conditions noted are these: time 50 min. In general terms: Writhing tests count abdominal constrictions after an irritant is injected.

Structures are written as SMILES. pIC50: −log10 of the molar value.

With `CCN1CSC(=S)N(CC)C1`, the pIC50 in the assay listed under Homo sapiens is 5.29. The Activity is given as 40.21 in the assay with Mus musculus [1] and 6.97% in the assay on Mus musculus [2].

Regarding `CC(C)N1CN(CC(=O)O)CSC1=S`, the IC50 result in the assay listed under Homo sapiens is given as “Not Active”. Further, in assay [3], the pIC50 is 4.06.

Take `CCCCN1CSC(=S)N(CC(=O)O)C1`: the IC50 result in the assay listed under Homo sapiens was “Not Active”.

Regarding `CCCN1CN(CC(=O)OCC)CSC1=S`, the pIC50 in the assay filed under Homo sapiens is 5.15; in assay [3] it was 4.06. Moreover, the figures for the Activity in the assay on Mus musculus [1] and in the assay on Mus musculus [2] were 29.25 and 32.05%, respectively.

Take `CCCN1CSC(=S)N(CC(=O)O)C1`: the pIC50 in the assay listed under Homo sapiens was 4.40; in assay [3] it was 4.03.

Consider `CCCCN1CN(CC(=O)O)CSC1=S`, for which, in the assay listed under Homo sapiens, the IC50 entry is “Not Active”.

For the compound `CCN1CN(CC(=O)O)CSC1=S`, the IC50 result in the assay listed under Homo sapiens was “Not Active”.

On to `CCCN1CN(CC(=O)O)CSC1=S`, for which the results for the pIC50 (in the assay filed under Homo sapiens; in assay [3]) were 4.62 and 4.11, respectively.

In the case of `CCCN1CN(CC(=O)OCc2ccccc2)CSC1=S`, the pIC50 in the assay filed under Homo sapiens is 5.39.

As to `O=C(O)CN1CN(CCO)CSC1=S`, the IC50 result in the assay listed under Homo sapiens is on record as “Not Active”. For the same compound, the pIC50 in assay [3] is 4.13.

Consider `COc1ccc(CN2CN(CC(=O)O)CSC2=S)cc1OC`, for which the pIC50 in the assay filed under Homo sapiens was less than 4.00; in assay [3], 4.09.

In the case of `CCCCN1CN(CC(=O)OCC)CSC1=S`, the pIC50 in the assay listed under Homo sapiens is 4.84.

`CCCN1CN(CC(=O)OC)CSC1=S`: the pIC50 in the assay listed under Homo sapiens was 4.49.

As for `CCN1CSC(=S)N(CC(=O)O)C1`, in the assay listed under Homo sapiens, the IC50 entry is reported as “Not Active”.

Take `C[C@H](c1ccccc1)N1CSC(=S)N([C@H](C)c2ccccc2)C1`: the Activity in the assay with Mus musculus [1] was 39; in the assay on Mus musculus [2] it was 9.3%. Moreover, in assay [3], the pIC50 was 4.18.

In the case of `C[C@@H](c1ccccc1)N1CSC(=S)N([C@@H](C)c2ccccc2)C1`, the Activity with Mus musculus [1] is reported as 35; with Mus musculus [2] it was 18.6%. The pIC50 in assay [3] is 4.16.

Turning to `CC(c1ccccc1)N1CN(CCO)CSC1=S` (racemic), in the assay filed under Homo sapiens, the IC50 result is listed as “Not Active”. Further, the pIC50 in assay [3] was 4.11.

For `CC(C)N1CSC(=S)N(C(C)c2ccccc2)C1` (racemic), the pIC50 in the assay filed under Homo sapiens was 5.12; in assay [3], 4.10. Also, the results for the Activity in the assay with Mus musculus [1] and in the assay on Mus musculus [2] were 41.35 and 4.65%, respectively.

For `CCN1CSC(=S)N(C(C)c2ccccc2)C1` (racemic), the values for the pIC50 (in the assay filed under Homo sapiens; in assay [3]) were less than 4.00 and 4.21, respectively.

Turning to `CC(c1ccccc1)N1CN(CC(=O)O)CSC1=S` (racemic), the figures for the pIC50 (in the assay filed under Homo sapiens; in assay [3]) were 4.41 and 4.17, respectively.

Regarding `CCCCN1CSC(=S)N(C(C)c2ccccc2)C1` (racemic), the pIC50 in the assay filed under Homo sapiens is less than 4.00.

Consider `CCCN1CSC(=S)N(C(C)c2ccccc2)C1` (racemic), for which the pIC50 in the assay listed under Homo sapiens was 4.77; in assay [3], 4.16.

Consider `CC(C)Cc1ccc(C(C)C(=O)O)cc1` (stereo unspecified) [IBUPROFEN], for which the pIC50 in the assay filed under Homo sapiens was 4.95.

In the case of `COc1ccc2c(c1)c(CC(=O)O)c(C)n2C(=O)c1ccc(Cl)cc1` [INDOMETHACIN], the Activity is recorded as 22.88 in the assay on Mus musculus [4] and 48.83% in the assay with Mus musculus [5].
